Source: patent US7423054B2, “Therapeutic pyrazolo[3,4-b]pyridines and indazoles” (Warner Lambert Company LLC, priority 2004, dated 2008)
Counter-ions that a name gives are not always drawn.

Key:
[1] = biological target: T1, human norepinephrine transporter (hNET) (Homo sapiens, UniProt P23975); assay: hNET receptor binding ([125I]-RTI-55 displacement, membranes of transfected HEK-293 cells); settings: HEK-293 membranes, Ki from IC50 by Cheng-Prusoff, read-out: NET Ki
T1 construct: expressed in transfected cells; host or cells: HEK-293 cells (membrane preparation)
T1 sequence (P23975 whole entry): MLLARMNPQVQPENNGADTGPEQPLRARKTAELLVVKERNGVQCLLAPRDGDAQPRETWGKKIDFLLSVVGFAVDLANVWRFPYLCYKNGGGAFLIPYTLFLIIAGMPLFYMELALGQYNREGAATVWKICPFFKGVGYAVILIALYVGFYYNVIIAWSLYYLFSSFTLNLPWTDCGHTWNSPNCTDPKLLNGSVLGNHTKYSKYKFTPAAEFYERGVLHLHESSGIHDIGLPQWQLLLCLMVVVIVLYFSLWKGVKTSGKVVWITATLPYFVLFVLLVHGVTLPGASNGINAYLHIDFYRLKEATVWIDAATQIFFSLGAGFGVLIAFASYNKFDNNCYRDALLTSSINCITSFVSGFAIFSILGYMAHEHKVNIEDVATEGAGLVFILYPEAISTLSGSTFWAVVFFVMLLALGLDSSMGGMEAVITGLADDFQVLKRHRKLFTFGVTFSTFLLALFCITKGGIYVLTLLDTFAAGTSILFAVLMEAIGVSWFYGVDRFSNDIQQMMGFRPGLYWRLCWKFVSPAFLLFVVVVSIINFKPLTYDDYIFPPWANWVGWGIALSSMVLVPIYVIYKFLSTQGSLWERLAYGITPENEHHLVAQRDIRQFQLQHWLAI
From the text: (§1) The ability of the compounds of the present invention to inhibit a norepinephrine transporter and/or a serotonin transporter can be determined using conventional radioligand receptor transport assays. The receptors can be heterologously expressed in cell lines and experiments conducted in membrane preparations from the cell lines that express a norepinephrine transporter and/or a serotonin transporter.
(§2) Cell pastes of HEK-293 cells transfected with a human norepinephrine transporter cDNA were prepared. The cell pastes were resuspended in 400 to 700 ml of Krebs-HEPES assay buffer (25 mM HEPES, 122 mM NaCl, 3 mM KCl, 1.2 mM MgSO4, 1.3 mM CaCl2, and 11 mM glucose, pH 7.4) with a Polytron homogenizer at setting 7 for 30 seconds. Aliquots of membranes (5 mg/ml protein) were stored in liquid nitrogen until used.
The binding assay was set up in Beckman deep-well polypropylene plates with a total volume of 250 μl containing: test compound (10^−5M to 10^−12M), cell membranes, and 50 pM [^125I]-RTI-55 (Perkin Elmer, NEX-272; specific activity 2200 Ci/mmol). The reaction was incubated by gentle agitation for 90 minutes at room temperature and was terminated by filtration through Whatman GF/C filter plates using a Brandel 96-well plate harvester. Scintillation fluid (100 μl) was added to each well, and bound [^125I]-RTI-55 was determined using a Wallac Trilux Beta Plate Counter. Test compounds were run in duplicate, and specific binding was defined as the difference between binding in the presence and absence of 10 μM desipramine.
Excel and GraphPad Prism software were used for data calculation and analysis. IC50 values were converted to Ki values using the Cheng-Prusoff equation. The Ki values (nM) for the hNET are reported below in Table 11.

[2] = biological target: T2, human serotonin transporter (hSERT) (Homo sapiens, UniProt P31645); assay: hSERT receptor binding ([125I]-RTI-55 displacement, membranes of transfected HEK-293 cells); settings: HEK-293 membranes, Ki from IC50 by Cheng-Prusoff, read-out: SERT Ki
T2 construct: expressed in transfected cells; host or cells: HEK-293 cells (membrane preparation)
T2 sequence (P31645 whole entry): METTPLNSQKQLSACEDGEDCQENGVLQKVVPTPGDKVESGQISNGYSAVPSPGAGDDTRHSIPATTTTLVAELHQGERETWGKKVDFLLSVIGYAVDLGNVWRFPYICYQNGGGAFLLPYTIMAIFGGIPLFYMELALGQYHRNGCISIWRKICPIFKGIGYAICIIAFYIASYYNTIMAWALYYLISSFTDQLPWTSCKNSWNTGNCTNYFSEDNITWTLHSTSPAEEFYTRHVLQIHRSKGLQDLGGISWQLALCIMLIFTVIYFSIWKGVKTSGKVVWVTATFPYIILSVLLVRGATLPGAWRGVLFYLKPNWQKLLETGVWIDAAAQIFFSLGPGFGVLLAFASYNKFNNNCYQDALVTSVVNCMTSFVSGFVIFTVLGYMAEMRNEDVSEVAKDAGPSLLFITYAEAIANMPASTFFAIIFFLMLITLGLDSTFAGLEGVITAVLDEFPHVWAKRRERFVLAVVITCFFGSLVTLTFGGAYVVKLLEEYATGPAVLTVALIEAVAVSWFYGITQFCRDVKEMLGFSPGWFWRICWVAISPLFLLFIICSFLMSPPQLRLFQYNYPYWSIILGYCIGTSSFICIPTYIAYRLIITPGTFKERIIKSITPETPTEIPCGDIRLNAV
Description: as §1
as §2, with “serotonin” for “norepinephrine”, “Setting” for “setting”, “(˜2.5” for “(5”
Assays were set up in FlashPlates pre-coated with 0.1% PEI in a total volume of 250 μl containing: test compound (10^−5M to 10^−12M), cell membranes, and 50 pM [^125I]-RTI-55 (Perkin Elmer, NEX-272; specific activity 2200 Ci/mmol). The reaction was incubated and gently agitated for 90 minutes at room temperature, and terminated by removal of assay volume. Plates were covered, and bound [^125I]-RTI-55 was determined using a Wallac Trilux Beta Plate Counter. Test compounds were run in duplicate, and specific binding was defined as the difference between binding in the presence and absence of 10 μM citalopram.
Excel and GraphPad Prism software were used for data calculation and analysis. IC50 values were converted to Ki values using the Cheng-Prusoff equation. The Ki values (nM) for the hSERT are reported below in Table 11: […]

Row | SMILES | Ki [1] [µM] | Ki [2] [µM]
1 | c1ccc(-n2nc(OC3CCCNC3)c3ccccc32)cc1 (racemic) [Example 15, (±)-1-Phenyl-3-(piperidin-3-yloxy)-1H-indazole hydrochloride] | 0.329 | 1.46
2 | c1ccc(-n2nc(OCC3CCCNC3)c3ccccc32)cc1 (racemic) [Example 16, (±)-1-Phenyl-3-(piperidin-3-ylmethoxy)-1H-indazole hydrochloride] | 0.0215 | 0.224
3 | c1ccc(-n2nc(OCC3CCNCC3)c3ccccc32)cc1 (racemic) [Example 17, (±)-1-Phenyl-3-(piperidin-4-ylmethoxy)-1H-indazole hydrochloride] | 0.151 | 0.028
4 | Fc1cccc(-n2nc(OCC3CCCNC3)c3ccccc32)c1 (racemic) [Example 66, (±)-1-(3-Fluoro-phenyl)-3-(piperidin-3-ylmethoxy)-1H-indazole hydrochloride] | 0.0169 | 0.12
5 | Fc1ccc(-n2nc(OCC3CCCNC3)c3ccccc32)cc1 (racemic) [Example 67, (±)-1-(4-Fluoro-phenyl)-3-(piperidin-3-ylmethoxy)-1H-indazole hydrochloride] | 0.0197 | 0.191
6 | Clc1ccc(-n2nc(OCC3CCCNC3)c3ccccc32)cc1 (racemic) [Example 68, (±)-1-(4-Chloro-phenyl)-3-(piperidin-3-ylmethoxy)-1H-indazole hydrochloride] | 0.219 | 0.359
7 | Clc1ccc2c(c1)c(OCC1CCCNC1)nn2-c1ccccc1 (racemic) [Example 69, (±)-5-Chloro-1-phenyl-3-(piperidin-3-ylmethoxy)-1H-indazol hydrochloride] | 0.098 | 0.339
8 | Fc1ccc2c(OCC3CCCNC3)nn(-c3ccccc3F)c2c1 (racemic) [Example 70, (±)-6-Fluoro-1-(2-fluoro-phenyl)-3-(piperidin-3-ylmethoxy)-1H-indazole hydrochloride] | 0.0336 | 0.2
9 | Fc1ccc2c(c1)c(OCC1CCCNC1)nn2-c1ccc(F)c(F)c1 (racemic) [Example 96, (±)-1-(3,4-Difluoro-phenyl)-5-fluoro-3-(piperidin-3-ylmethoxy)-1H-indazole hydrochloride] | 0.0495 | 0.172
10 | Fc1ccccc1-n1nc(OC[C@@H]2CNCCO2)c2ccccc21 [Example 2, (S)-(+)-1-(2-Fluorophenyl)-3-(morpholin-2-ylmethoxy)-1H-indazole maleate] | 0.00928 | 1.62
11 | Fc1ccc(-n2nc(OC[C@@H]3CNCCO3)c3ccccc32)c(F)c1 [Example 3, (S)-(+)-1-(2,4-Difluorophenyl)-3-(morpholin-2-ylmethoxy)-1H-indazole maleate] | 0.0034 | 0.832
12 | Fc1ccccc1-n1nc(OCC2CCCNC2)c2ccccc21 (stereo not shown) [Example 4, 1-(2-Fluorophenyl)-3-(piperidin-3-ylmethoxy)-1H-indazole hydrochloride] | 0.003 | 0.27
13 | Fc1ccccc1-n1nc(OC[C@H]2CNCCO2)c2ccccc21 [Example 5, (R)-(−)-1-(2-Fluorophenyl)-3-(morpholin-2-ylmethoxy)-1H-indazole hydrochloride] | 0.084 | 1.61
14 | Fc1ccccc1-n1nc(OC[C@H]2CCCNC2)c2ccccc21 [Example 6, (S)-(−)-1-(2-Fluorophenyl)-3-(piperidin-3-ylmethoxy)-1H-indazole hydrochloride] | 0.00165 | 0.192
15 | Fc1ccc(-n2nc(OC3CCNCC3)c3ccccc32)c(F)c1 [Example 10, 1-(2,4-Difluoro-phenyl)-3-(piperidin-4-yloxy)-1H-indazole hydrochloride] | 0.0143 | 0.0361
16 | Fc1ccccc1-n1nc(OC[C@@H]2CCNC2)c2ccccc21 [Example 11, (R)-1-(2-Fluoro-phenyl)-3-(pyrrolidin-3-ylmethoxy)-1H-indazole hydrochloride] | 0.014 | 0.279

Row | SMILES | Ki [1] [µM] | Ki [2] [µM]
17 | Fc1ccccc1-n1nc(O[C@H]2CCCN2)c2ccccc21 [Example 12, (S)-(−)-1-(2-Fluorophenyl)-3-(pyrrolidin-2-yloxy)-1H-indazole hydrochloride] | 0.0125 | 1.01
18 | Fc1ccccc1-n1nc(O[C@@H]2CCCN2)c2ccccc21 [Example 13, (R)-(+)-1-(2-Fluorophenyl)-3-(pyrrolidin-2-yloxy)-1H-indazole maleate] | 0.131 | 5.29
19 | c1ccc(-n2nc(OC[C@@H]3CCCNC3)c3ccccc32)cc1 [Example 18, (R)-(+)-1-Phenyl-3-(piperidin-3-ylmethoxy)-1H-indazole hydrochloride] | 0.0955 | 0.121
20 | c1ccc(-n2nc(OC[C@H]3CCCNC3)c3ccccc32)cc1 [Example 19, (S)-(−)-1-Phenyl-3-(piperidin-3-ylmethoxy)-1H-indazole hydrochloride] | 0.00543 | 0.486
21 | c1ccc(-n2nc(OC[C@@H]3CNCCO3)c3ccccc32)cc1 [Example 21, (S)-(+)-3-(Morpholin-2-ylmethoxy)-1-phenyl-1H-indazole hydrochloride] | 0.0125 | 1.12
22 | c1ccc(-n2nc(OC[C@H]3CCNC3)c3ccccc32)cc1 [Example 22, (S)-1-Phenyl-3-(pyrrolidin-3-ylmethoxy)-1H-indazole hydrochloride] | 0.0257 | 0.0682
23 | Fc1ccc(-n2nc(OC[C@@H]3CNCCO3)c3ccccc32)cc1F [Example 23, (S)-1-(3,4-Difluoro-phenyl)-3-(morpholin-2-ylmethoxy)-1H-indazole hydrochloride] | 0.0115 | 1.53
24 | Fc1cccc(F)c1-n1nc(OC[C@H]2CCCNC2)c2ccccc21 [Example 25, (S)-1-(2,6-Difluoro-phenyl)-3-(piperidin-3-ylmethoxy)-1H-indazole maleate] | 0.0032 | 0.67
25 | Fc1ccc(F)c(-n2nc(OC[C@@H]3CNCCO3)c3cc(F)ccc32)c1 [Example 26, (S)-1-(2,5-Difluoro-phenyl)-5-fluoro-3-(morpholin-2-ylmethoxy)-1H-indazole maleate] | 0.0069 | 0.346
26 | Fc1ccc(F)c(-n2nc(OC[C@@H]3CNCCO3)c3ccccc32)c1 [Example 28, (S)-(+)-1-(2,5-Difluorophenyl)-3-(morpholin-2-ylmethoxy)-1H-indazole maleate] | 0.0051 | 0.64
27 | Clc1cc(Cl)cc(-n2nc(OC3CCNCC3)c3ccccc32)c1 [Example 29, 1-(3,5-Dichloro-phenyl)-3-(piperidin-4-yloxy)-1H-indazole hydrochloride] | 4.05 | 0.342
28 | Fc1ccc(-n2nc(OC[C@H]3CCCNC3)c3ccccc32)cc1F [Example 33, (S)-1-(3,4-Difluoro-phenyl)-3-(piperidin-3-ylmethoxy)-1H-indazole hydrochloride] | 0.0192 | 0.198
29 | Fc1ccc(-n2nc(OC3CCNCC3)c3ccccc32)cc1F [Example 34, 1-(3,4-Difluoro-phenyl)-3-(piperidin-4-yloxy)-1H-indazole hydrochloride] | 0.03 | 0.081
30 | Fc1ccc(-n2nc(OC[C@H]3CCNC3)c3ccccc32)cc1F [Example 35, (S)-1-(3,4-Difluoro-phenyl)-3-(pyrrolidin-3-ylmethoxy)-1H-indazole hydrochloride] | 0.024 | 0.0826
31 | Fc1cccc(F)c1-n1nc(OC2CCNCC2)c2ccccc21 [Example 36, 1-(2,6-Difluoro-phenyl)-3-(piperidin-4-yloxy)-1H-indazole hydrochloride] | 0.00516 | 0.0827
32 | Fc1cccc(F)c1-n1nc(OC[C@H]2CCNC2)c2ccccc21 [Example 37, (S)-1-(2,6-Difluoro-phenyl)-3-(pyrrolidin-3-ylmethoxy)-1H-indazole hydrochloride] | 0.00605 | 0.105
